# Measurements from paper PMC6789174 (Drug Design, Development and Therapy, 2019).
# Like-named read-outs stand apart in the source and are kept apart here.
# Key:
# [1] = ABTS free radical scavenging
# [2] = DPPH free radical scavenging
# porcine α-amylase = target: T1, porcine α-amylase (Sus scrofa, UniProt P00690); assay: biochemical
# T1 sequence (P00690 16-511): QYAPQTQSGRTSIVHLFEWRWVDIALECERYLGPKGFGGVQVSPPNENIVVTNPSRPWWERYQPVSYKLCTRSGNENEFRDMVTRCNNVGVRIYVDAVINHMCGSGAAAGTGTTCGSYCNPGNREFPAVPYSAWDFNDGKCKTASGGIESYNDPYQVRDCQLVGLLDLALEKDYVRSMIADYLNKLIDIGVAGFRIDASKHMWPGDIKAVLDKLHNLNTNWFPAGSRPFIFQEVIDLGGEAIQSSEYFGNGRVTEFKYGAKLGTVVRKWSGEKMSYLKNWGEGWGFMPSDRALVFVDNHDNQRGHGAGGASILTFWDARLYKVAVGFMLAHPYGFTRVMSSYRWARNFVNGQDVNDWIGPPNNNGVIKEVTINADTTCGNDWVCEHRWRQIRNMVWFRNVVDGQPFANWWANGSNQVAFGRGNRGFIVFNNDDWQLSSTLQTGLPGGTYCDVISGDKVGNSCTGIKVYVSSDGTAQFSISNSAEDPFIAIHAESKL
# Staphylococcus aureus = assay: Anti-bacterial activity, agar well diffusion; format: cell-based
# Proteus vulgaris = assay: Anti-bacterial activity, agar well diffusion; format: cell-based
# Acetylcholinesterase = Acetylcholinesterase (Homo sapiens, UniProt P22303); assay: biochemical
# Acetylcholinesterase, sequence (P22303 32-614, species assumed): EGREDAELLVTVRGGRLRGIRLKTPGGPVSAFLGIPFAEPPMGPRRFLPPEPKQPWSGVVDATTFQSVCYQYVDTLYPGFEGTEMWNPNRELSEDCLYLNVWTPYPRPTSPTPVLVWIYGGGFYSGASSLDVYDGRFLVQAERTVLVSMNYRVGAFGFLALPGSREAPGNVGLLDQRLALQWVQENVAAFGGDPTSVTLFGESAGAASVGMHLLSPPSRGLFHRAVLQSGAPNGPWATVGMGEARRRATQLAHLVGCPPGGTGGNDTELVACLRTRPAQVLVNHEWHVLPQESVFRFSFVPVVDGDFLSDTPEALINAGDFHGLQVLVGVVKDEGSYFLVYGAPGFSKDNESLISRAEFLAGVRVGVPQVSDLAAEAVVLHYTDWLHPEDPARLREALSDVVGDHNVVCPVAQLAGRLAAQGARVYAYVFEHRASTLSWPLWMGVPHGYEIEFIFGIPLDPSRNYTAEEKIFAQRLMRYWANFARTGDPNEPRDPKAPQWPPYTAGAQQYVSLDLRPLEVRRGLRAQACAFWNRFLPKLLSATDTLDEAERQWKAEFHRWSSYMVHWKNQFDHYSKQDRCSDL
# Butyrylcholinesterase = Butyrylcholinesterase (Homo sapiens, UniProt P06276); assay: Anticholinesterase assay; format: biochemical
# Butyrylcholinesterase, sequence (P06276 29-602): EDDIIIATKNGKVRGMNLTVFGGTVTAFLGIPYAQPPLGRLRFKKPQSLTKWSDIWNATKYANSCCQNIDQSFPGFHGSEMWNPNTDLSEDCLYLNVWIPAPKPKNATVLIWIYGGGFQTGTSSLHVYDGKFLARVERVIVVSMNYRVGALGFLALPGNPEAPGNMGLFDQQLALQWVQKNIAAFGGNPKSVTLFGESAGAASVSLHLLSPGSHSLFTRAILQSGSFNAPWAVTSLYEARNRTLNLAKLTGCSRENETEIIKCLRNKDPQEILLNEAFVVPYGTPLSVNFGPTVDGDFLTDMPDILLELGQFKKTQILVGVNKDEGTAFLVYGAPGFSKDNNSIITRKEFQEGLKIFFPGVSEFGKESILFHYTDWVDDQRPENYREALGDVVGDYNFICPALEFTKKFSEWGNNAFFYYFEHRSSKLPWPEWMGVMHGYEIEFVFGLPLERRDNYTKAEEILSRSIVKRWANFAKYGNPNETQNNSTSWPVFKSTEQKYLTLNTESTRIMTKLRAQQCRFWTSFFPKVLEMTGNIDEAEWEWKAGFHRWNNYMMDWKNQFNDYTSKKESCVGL
# [3] = system: Agrobacterium tumefaction; assay: Anti-bacterial activity, agar well diffusion; format: cell-based
# glucose-6-phosphatase = target: T2, glucose-6-phosphatase (Homo sapiens, UniProt P35575); assay: Glucose-6-phosphatase activity; format: biochemical; conditions: 33°C, pH 6.7, control 72.0
# T2 sequence (P35575 1-357): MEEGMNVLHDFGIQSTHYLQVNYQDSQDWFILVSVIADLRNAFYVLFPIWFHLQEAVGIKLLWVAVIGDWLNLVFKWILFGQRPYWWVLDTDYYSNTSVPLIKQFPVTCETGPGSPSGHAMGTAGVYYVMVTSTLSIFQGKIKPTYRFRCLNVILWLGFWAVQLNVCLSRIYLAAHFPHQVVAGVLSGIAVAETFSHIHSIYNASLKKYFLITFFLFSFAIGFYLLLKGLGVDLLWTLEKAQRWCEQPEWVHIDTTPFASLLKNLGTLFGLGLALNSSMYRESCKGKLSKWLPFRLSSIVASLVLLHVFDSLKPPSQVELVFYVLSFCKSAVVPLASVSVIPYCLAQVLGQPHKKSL
# α-glucosidase = α-glucosidase (Saccharomyces cerevisiae, UniProt P53341); assay: Alpha glucosidase inhibition; format: biochemical
# α-glucosidase, sequence (P53341 whole entry): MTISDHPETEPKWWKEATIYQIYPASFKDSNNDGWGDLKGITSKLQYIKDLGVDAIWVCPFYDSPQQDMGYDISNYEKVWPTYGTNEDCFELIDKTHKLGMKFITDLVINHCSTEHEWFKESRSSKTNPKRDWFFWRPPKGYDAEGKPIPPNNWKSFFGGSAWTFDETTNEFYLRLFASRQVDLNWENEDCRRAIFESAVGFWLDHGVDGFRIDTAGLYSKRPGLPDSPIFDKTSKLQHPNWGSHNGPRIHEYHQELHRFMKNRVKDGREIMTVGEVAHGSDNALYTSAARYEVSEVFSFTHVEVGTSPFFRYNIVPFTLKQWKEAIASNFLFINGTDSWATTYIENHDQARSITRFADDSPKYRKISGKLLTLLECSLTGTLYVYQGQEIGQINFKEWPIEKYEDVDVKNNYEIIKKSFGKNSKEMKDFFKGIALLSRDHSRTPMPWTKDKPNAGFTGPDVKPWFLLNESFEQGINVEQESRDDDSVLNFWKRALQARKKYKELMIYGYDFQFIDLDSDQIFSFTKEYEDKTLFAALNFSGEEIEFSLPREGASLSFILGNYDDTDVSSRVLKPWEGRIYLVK
# [4] = read-out: ZI (Zone of inhibition), Staphylococcus aureus
# [5] = read-out: ZI (Zone of inhibition), Proteus vulgaris
# [6] = read-out: %AChE Inhibition (mean ± SEM)
# [7] = read-out: %BChE Inhibition (mean ± SEM)
# [8] = read-out: ZI (Zone of inhibition), Agrobacterium tumefaction
# [9] = read-out: %Inhibition (mean ± SEM), alpha amylase
smiles,measurement,setting,value
"O=C1O[C@H]([C@@H](O)CO)C(O)=C1O [Ascorbic acid, reference compound]",ABTS IC50,[1],55 µg/mL
same,ABTS % I (mean ± S.E.M),[1]; concentration 125 μg/mL,55.30 ± 1.75%
same,ABTS % I (mean ± S.E.M),[1]; concentration 250 μg/mL,70.14 ± 1.16%
same,ABTS % I (mean ± S.E.M),[1]; concentration 500 μg/mL,85.45 ± 1.36%
same,ABTS % I (mean ± S.E.M),[1]; concentration 1000 μg/mL,88.17 ± 0.43%
same,DPPH IC50,[2],35 µg/mL
same,DPPH % I (mean ± S.E.M),[2]; concentration 125 μg/mL,67.40±1.18%
same,DPPH % I (mean ± S.E.M),[2]; concentration 250 μg/mL,76.13±1.45%
same,DPPH % I (mean ± S.E.M),[2]; concentration 500 μg/mL,85.11 ± 1.64%
same,DPPH % I (mean ± S.E.M),[2]; concentration 1000 μg/mL,90.14 ± 0.76%
"S=C(Nc1ccccc1)NC(c1ccccn1)C(Cc1ccccc1)Cc1ccccc1 (stereo not drawn) [Compound III, 1-(2-benzyl-3-phenyl-1-(pyridine-2-yl)propyl)-3-phenylthiourea]",IC50,porcine α-amylase,263 µM
same,"%Inhibition (mean ± SEM), alpha amylase",porcine α-amylase; concentration 250 μg/mL,57.91 ± 0.43%
same,inhibition at 125 µg/mL,"porcine α-amylase; read-out: %Inhibition (mean ± SEM), alpha amylase, concentration 125 µg/mL",50.1 ± 2.11%
same,inhibition at 250 µg/mL,"porcine α-amylase; read-out: %Inhibition (mean ± SEM), alpha amylase, concentration 250 µg/mL",62.5 ± 1.24%
same,inhibition at 1000 µg/mL,"porcine α-amylase; read-out: %Inhibition (mean ± SEM), alpha amylase, concentration 1000 µg/mL",65.8 ± 1.13%
same,MIC,"Staphylococcus aureus; read-out: MIC, Staphylococcus aureus",14.9 µg/mL
same,zone of inhibition at 10 µg/mL,Staphylococcus aureus; [4],15 mm
same,zone of inhibition at 20 µg/mL,Staphylococcus aureus; [4],16 mm
same,zone of inhibition at 30 µg/mL,Staphylococcus aureus; [4],19 mm
same,MIC,"Proteus vulgaris; read-out: MIC, Proteus vulgaris",15 µg/mL
same,zone of inhibition at 10 µg/mL,Proteus vulgaris; [5],12 mm
same,zone of inhibition at 20 µg/mL,Proteus vulgaris; [5],16 mm
same,zone of inhibition at 30 µg/mL,Proteus vulgaris; [5],22 mm
same,ABTS IC50,[1],80 µg/mL
same,ABTS % I (mean ± S.E.M),[1]; concentration 125 μg/mL,64.77 ±0.087%
same,ABTS % I (mean ± S.E.M),[1]; concentration 250 μg/mL,66.25 ±0.123%
same,ABTS % I (mean ± S.E.M),[1]; concentration 500 μg/mL,68.27 ± 0.532%
same,ABTS % I (mean ± S.E.M),[1]; concentration 1000 μg/mL,69.11 ± 0.234%
same,DPPH IC50,[2],79 µg/mL
same,DPPH % I (mean ± S.E.M),[2]; concentration 125 μg/mL,61.14±0.177%
same,DPPH % I (mean ± S.E.M),[2]; concentration 250 μg/mL,64.74 ± 0.267%
same,DPPH % I (mean ± S.E.M),[2]; concentration 500 μg/mL,66.07 ± 0.283%
same,DPPH % I (mean ± S.E.M),[2]; concentration 1000 μg/mL,67.45 ± 0.095%
same,IC50,Acetylcholinesterase,144 µM
same,inhibition at 125 µg/mL,Acetylcholinesterase; [6],62.2 ± 1.12%
same,inhibition at 250 µg/mL,Acetylcholinesterase; [6],66.5 ± 2.08%
same,inhibition at 500 µg/mL,Acetylcholinesterase; [6],75.7 ± 1.15%
same,inhibition at 1000 µg/mL,Acetylcholinesterase; [6],84.3 ± 1.12%
same,IC50,Butyrylcholinesterase,183 µM
same,inhibition at 125 µg/mL,Butyrylcholinesterase; [7],58.3 ± 1.06%
same,inhibition at 250 µg/mL,Butyrylcholinesterase; [7],61.8 ± 1.54%
same,inhibition at 500 µg/mL,Butyrylcholinesterase; [7],63.8 ± 1.53%
same,inhibition at 1000 µg/mL,Butyrylcholinesterase; [7],68.5 ± 1.07%
same,MIC,"[3]; read-out: MIC, Agrobacterium tumefaction",11.6 µg/mL
same,zone of inhibition at 10 µg/mL,[3]; [8],15 mm
same,zone of inhibition at 20 µg/mL,[3]; [8],20 mm
same,zone of inhibition at 30 µg/mL,[3]; [8],26 mm
same,Total Activity of glucose-6-phosphatase,glucose-6-phosphatase; concentration 125 µg/mL,32.04 mg of P released per hour
same,Total Activity of glucose-6-phosphatase,glucose-6-phosphatase; concentration 250 µg/mL,28.35 mg of P released per hour
same,Total Activity of glucose-6-phosphatase,glucose-6-phosphatase; concentration 500 µg/mL,27.10 mg of P released per hour
C[C@H]1O[C@H](O[C@H]2[C@H](O)[C@@H](O)[C@@H](O[C@H]3[C@H](O)[C@@H](O)C(O)O[C@@H]3CO)O[C@@H]2CO)[C@H](O)[C@@H](O)[C@@H]1N[C@H]1C=C(CO)[C@@H](O)[C@H](O)[C@H]1O (stereo partly drawn) [Acarbose],inhibition at 125 µg/mL,porcine α-amylase; [9],58.1 ± 1.34%
same,inhibition at 500 µg/mL,porcine α-amylase; [9],73 ± 1.34%
same,inhibition at 1000 µg/mL,porcine α-amylase; [9],88.1 ± 1.13%
same,"%Inhibition (mean ± SEM), alpha glucosidase",α-glucosidase,94.02 ± 1.23%
same,"%Inhibition (mean ± SEM), alpha glucosidase",α-glucosidase; concentration 125 μg/mL,59.83 ± 2.04%
same,"%Inhibition (mean ± SEM), alpha glucosidase",α-glucosidase; concentration 250 μg/mL,68.14 ± 2.18%
same,"%Inhibition (mean ± SEM), alpha glucosidase",α-glucosidase; concentration 500 μg/mL,79.11 ± 2.12%
